Measured values published in PMC8750417, “Intracellular Amplifiers of Reactive Oxygen Species Affecting Mitochondria as Radiosensitizers” (Cancers, 2021).
Read-outs that look alike come from different tables or passages of the source.

Tests used:
Jurkat cells = assay: Jurkat flow cytometry (AnnexinA5/PI viability, DiIC1(5) MMP, monobromobimane GSH, cell cycle); format: cell-based, human; conditions: for IC50: 48 h incubation
Method: Jurkat cells The cells were counted in MUSE Cell Analyzer using MUSE® Count &Viability Assay Kit (Merck-Millipore, Billerica, MA, USA) and adjusted to a density of 1.0 x 10^5/ml in RPMI 1640 medium (with 10% FCS and 1% glutamine). 9.000 cells per well per 90 µL were seeded into 96 well culture plates. The 30 mM prodrug stock solutions in DMSO were diluted to 300 µM, 100 µM, 30 µM and 10 µM in cell culture medium and 10 µL of the dilutions was pipetted to the cells, receiving final test concentrations of 30 µM, 10 µM, 3 µM and 1 µM. Every concentration was tested in triplicates. Cells with corresponding amounts of DMSO served as negative controls. After 48 h cells were mixed and 25 µL of […]
the cell suspension was incubated with 200 µL of freshly prepared staining solution, consisting of AnnexinA5-Fitc (1 µL), 1,1′,3,3,3′,3′-hexamethylindodicarbocyanine iodide (DiIC1(5), 0.4 µL) (both from ThermoFisher Scientific, Waltham, MA, USA), propidium iodide (PI, 67 ng) and monobromobimane (MBB, 33 µM, both from Sigma-Aldrich, Taufkirchen, Germany) per 1 ml Ringer’s solution (Fresenius Kabi AG, Bad Homburg, Germany). Cells were incubated for 20 min at 4°C and then analyzed in Gallios cytofluorometer™ (Beckman Coulter, Fullerton, CA, USA). Fitc and propidium iodide were excited at 488 nm; Fitc fluorescence was recorded on the FL1 sensor (525/38 nm band pass, BP) and propidium iodide fluorescence was detected on FL3 sensor (620/30 nm BP), DiIC1(5) fluorescence was excited at 638 nm and detected on FL6 sensor at 675/20 nm BP, and monobromobimane fluorescence was excited at 405 nm and detected on FL9 sensor at 430/40 nm BP. To eliminate any fluorescence bleed-through, electronic compensation was used. Data were analyzed employing Kaluza™ software Version 1.2 (Beckman Coulter, Fullerton, CA, USA) and processed in Microsoft Excel (Figures S51-S54, Table S5). Cells negative for Annexin A5-Fitc and propidium iodide were considered viable. IC50 values were determined by fitting the % values of Ax-PI- cells versus drug concentration with a sigmoidal curve using GraphPad Prism software. Reduced glutathione (an intracellular thiol) can be detected by monobromobimane, a dye that becomes fluorescent after non-enzymatic binding to thiols.[S3] For analysis of amount of mitochondrial membrane potential or reduced glutathione the mean fluorescence index (MFI) was determined from viable cells by gating on Ax -PI- events.
Table S5. Effects of the prodrugs on the viability of Jurkat cell lines (IC50 values) after 48

ARPE-19 cells = assay: Cytotoxicity MTT assay, ARPE-19; format: cell-based; conditions: read-out: 50% cell survival (EC50)
Method: Study of synergy of prodrugs with radiotherapy for SAS and FaDu cells
Optimization of concentration of prodrugs and controls / MTT assay
The MTT assay was also applied to assess the impact of various drugs (0.01-100 µM) on the viability of the two human head and neck squamous carcinoma cell (HNSCC) lines SAS and FaDu as well as retinal pigment epithelial ARPE-19 cells and human fibroblasts (HF). Cells were seeded into 96-well plates at concentrations of 4000 and 2000 cells per […]
h before exposure to the drugs. All drug dilutions were prepared from 20 mM stock solutions in DMSO. The final DMSO concentration was set to 0.5% in all sample s including control. After completion of the treatment, the wells were processed according to the routine MTT protocol as described above; the formazan absorbance was then measured on a Biotek Epoch Microplate Spectrophotometer at 590 nm and corrected for the background signal at 620 nm. N≥3 independent experiments were performed for each drug candidate, cell type and treatment interval. Cell survival was recorded as function of the drug concentration, and dose-response curves were fitted with the Boltzmann equation where appropriate. We calculated the half-maximal response (EC50) as well as the EC20 (80% survival) according to the line curve (see Tables S6-S8). EC20-values were used as a basis to select the compound-specific non-toxic drug concentrations for combination with radiotherapy.

FaDu cells = assay: Clonogenic assay (colony formation), FaDu; format: cell-based, human; conditions: for Relative clonogenic survival: 48 h exposure, untreated control = 1
Method: Optimization of concentration of prodrugs and controls / clonogenic assay The clonogenic survival assay is a classical approach to monitor radioresponse and drug- induced radiosensitization in cancer cells. We therefore initially determined whether the supposedly non -toxic drug concentrations defined for combinatorial treatment testing affect single cell colony formation capacity. For this pu rpose, exponentially growing SAS and FaDu cells were dissociated, single cell suspensions were prepared in standard DMEM and seeded in 6 -well plates at […]
defined low density (150-300 cells in 1 ml per well). After 8 h of incubation to allow cell adherence, 50% of the supernatant was exchanged by media containing the respective prodrugs at 2x concentration and exposed for 48 h. Treatment was then terminated by medium removal, and cells were allowed to grow for a period of ≥5-6 cell divisions estimated from the cell line-specific doubling times of the respective untreated controls (~7 days for SAS and ~10 days for FaDu cells). Control cells were always handled in parallel to the treated cells and thus exposed to the corresponding DMSO concentration(s). After the defined growth intervals, cells were fixed, stained and colonies of >50 cells were manually counted at low magnification to calculate plating efficiencies as the number of counted colonies relative to the number of seeded cells. Drug effect on clonogenic survival was then estimated by normalizing the colony formation of control cells to 1 (Table S9). […]

Row | SMILES | effect on MMP (Jurkat cells; 48 h) | effect on cell cycle (Jurkat cells; 48 h) | effect on intracellular GSH amount (Jurkat cells; 48 h) | mechanism of cell death (Jurkat cells; 48 h, Annexin A5/PI) | IC50 (Jurkat cells) | EC50 (ARPE-19 cells; ARPE-19, 24h) | EC50 (ARPE-19 cells; ARPE-19, 48h) | Relative clonogenic survival (FaDu cells; 10 µM) | growth of colonies reduced to (FaDu cells; 25 µM) | Relative clonogenic survival (FaDu cells; 25 µM) | Relative clonogenic survival (FaDu cells; 0.5 µM) | Relative clonogenic survival (FaDu cells; 1 µM) | Relative clonogenic survival (FaDu cells; 2.5 µM) | colony formation reduced to (FaDu cells; 10-fold lower dose than 25 µM)
1 | CC1(C)OB(c2ccc(COC(=O)N(Cc3cn(Cc4ccc(Cn5cc(Cc6ccccc6)nn5)cc4)nn3)[c-]3cccc3)cc2)OC1(C)C.[Fe+2].c1cc[cH-]c1 [2c] | decrease | cell-cycle arrest in the G0/G1 phase | unaffected | mainly via necrosis | 5 ± 2 µM | > 50 µM | > 50 µM | 0.86 ± 0.13 | 20 ± 8% | 0.20 ± 0.08 | – | – | – | –
2 | CC1(C)OB(c2ccc(COC(=O)N(Cc3cccc(CN4CCCCC4)c3)[c-]3cccc3)cc2)OC1(C)C.[Fe+2].c1cc[cH-]c1 [5b] | – | – | – | – | 7.2 ± 0.1 µM | 40.4 ± 2.5 µM | 26.6 ± 8.3 µM | – | – | – | 0.71 ± 0.07 | 0.75 ± 0.11 | 0.36 ± 0.10 | 36 ± 10%
3 | CCOC(=O)CCCCCn1cc(CN(C(=O)OCc2ccc(B3OC(C)(C)C(C)(C)O3)cc2)[c-]2cccc2)nn1.[Fe+2].c1cc[cH-]c1 [compound 1] | slight increase | – | slight increase | – | 30 ± 4 µM | – | – | – | – | – | – | – | – | –
4 | [Fe+2].c1cc[cH-]c1.c1cc[cH-]c1 [compound 6, ferrocene] | – | – | – | – | > 100 µM | > 50 µM | > 50 µM | – | – | 0.99 ± 0.08 | – | – | – | –
